# Values quoted from earlier work, collected in patent US20210401846A1, “MEDICAMENT, COMPOUND, COMPOSITION AND METHOD FOR TREATING HERPES” (priority 2020, published 2021).
# Where two headings read alike, the source gives them in different places.
# Columns and labels:
# [1] = target: T1, aldehyde oxidase (Homo sapiens, UniProt Q06278); conditions: in vitro inhibitors of aldehyde oxidase
# T1 construct: host or cells: endogenous enzyme in vivo
# T1 sequence (Q06278 1-1338): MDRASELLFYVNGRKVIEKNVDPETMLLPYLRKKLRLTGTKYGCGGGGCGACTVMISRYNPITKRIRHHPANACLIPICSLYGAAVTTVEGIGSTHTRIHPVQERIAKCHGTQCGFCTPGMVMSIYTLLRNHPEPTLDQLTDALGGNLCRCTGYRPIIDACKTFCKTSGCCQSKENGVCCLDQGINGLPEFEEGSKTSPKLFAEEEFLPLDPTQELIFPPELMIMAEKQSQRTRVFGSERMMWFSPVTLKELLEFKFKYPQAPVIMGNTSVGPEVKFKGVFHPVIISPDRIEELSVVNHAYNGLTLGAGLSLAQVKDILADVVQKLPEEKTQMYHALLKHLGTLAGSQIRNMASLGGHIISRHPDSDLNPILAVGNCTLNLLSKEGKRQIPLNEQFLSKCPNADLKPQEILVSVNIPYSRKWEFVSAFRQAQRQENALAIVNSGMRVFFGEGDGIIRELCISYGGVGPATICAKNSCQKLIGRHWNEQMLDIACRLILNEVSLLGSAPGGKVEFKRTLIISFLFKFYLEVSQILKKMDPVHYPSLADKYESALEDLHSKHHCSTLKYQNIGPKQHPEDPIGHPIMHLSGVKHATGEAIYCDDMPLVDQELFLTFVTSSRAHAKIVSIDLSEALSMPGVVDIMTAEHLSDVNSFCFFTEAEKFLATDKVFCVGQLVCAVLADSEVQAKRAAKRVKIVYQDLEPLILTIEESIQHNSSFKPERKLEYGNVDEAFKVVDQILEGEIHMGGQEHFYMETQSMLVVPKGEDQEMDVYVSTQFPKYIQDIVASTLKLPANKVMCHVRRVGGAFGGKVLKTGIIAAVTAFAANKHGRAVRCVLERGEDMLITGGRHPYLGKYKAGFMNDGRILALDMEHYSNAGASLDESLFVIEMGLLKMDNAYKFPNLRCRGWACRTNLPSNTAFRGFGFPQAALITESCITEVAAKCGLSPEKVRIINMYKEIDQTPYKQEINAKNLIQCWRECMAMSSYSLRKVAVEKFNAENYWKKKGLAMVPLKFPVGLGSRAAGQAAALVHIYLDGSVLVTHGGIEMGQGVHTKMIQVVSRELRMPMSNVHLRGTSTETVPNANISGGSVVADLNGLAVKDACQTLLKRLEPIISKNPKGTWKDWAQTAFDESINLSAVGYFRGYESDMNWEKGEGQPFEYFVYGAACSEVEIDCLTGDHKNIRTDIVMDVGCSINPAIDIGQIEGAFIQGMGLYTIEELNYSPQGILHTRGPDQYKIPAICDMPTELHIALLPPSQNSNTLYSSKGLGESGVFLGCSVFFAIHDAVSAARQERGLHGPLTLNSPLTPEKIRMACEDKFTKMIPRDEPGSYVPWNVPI
# [2] = test system: cytochrome P450; conditions: human liver microsomes
# [3] = during therapy
# [4] = not given; remark: listed apart in the source
# [5] = not given; remark: listed apart in the source
# [6] = for half-life: 17 patients with herpes zoster
# [7] = not given; remark: listed apart in the source
# [8] = single oral 500 mg radiolabeled famciclovir, 3 healthy male volunteers
# [9] = after single oral 500 mg radiolabeled famciclovir
# [10] = oral single dose 500 mg famciclovir, 7 patients with herpes zoster
# [11] = oral administration of radiolabeled valacyclovir
smiles,measurement,setting,value
CN/C(=N/CCSCc1nc[nH]c1C)NC#N [Cimetidine],effects on the formation of penciclovir in vivo,[1],did not show relevant effects
"CC(=O)OCC(CCn1cnc2cnc(N)nc21)COC(C)=O [Famciclovir, famciclovir]",famciclovir detected in plasma or urine,oral administration,Little or no
same,radiolabeled dose collected in urine in the first 6 hours,single oral 500 mg radiolabeled famciclovir,Approximately 60%
same,administered radioactivity recovered in feces over 72 hours,[8],27%
same,administered radioactivity recovered in urine over 72 hours,[8],73%
same,role of cytochrome P450 in famciclovir metabolism,[2],does not play an important role
same,clinically apparent liver injury,[3],has not been associated with instances of clinically apparent liver injury
same,serum ALT elevations,[3],low rate of mild-to-moderate serum ALT elevations
Nc1ncc2ncn(CCC(CO)CO)c2n1 [6-deoxy penciclovir],share of the radioactivity excreted in the urine,[9],7%
same,"inactive metabolite, % of the dose in the urine",oral administration of famciclovir,5%
CC(CN1c2ccccc2Sc2ccccc21)N(C)C (centres unmarked) [promethazine],effects on the formation of penciclovir in vivo,[1],did not show relevant effects
Nc1nc2c(ncn2CCC(CO)CO)c(=O)[nH]1 [penciclovir],dose excreted in the first 6 hours,"5 mg/kg radiolabeled penciclovir, 1-hour infusion",83%
same,administered radioactivity recovered in urine over 24 hours,"5 mg/kg radiolabeled penciclovir, 1-hour infusion, 3 healthy male volunteers",Approximately 94%
same,accumulation of penciclovir,500 mg famciclovir three times daily for 7 days,no accumulation
same,share of the radioactivity excreted in the urine,after 5 mg/kg radiolabeled penciclovir infusion,91%
same,share of the radioactivity excreted in the urine,[9],82%
same,Penciclovir concentrations vs dose,famciclovir 125 mg to 1000 mg single dose,increased in proportion to dose
same,renal clearance as share of total plasma clearance,intravenous penciclovir,74.5±8.8%
same,Cmax decrease,"[4]; capsule formulation of famciclovir administered with food (approx. 910 Kcal, 26% fat)",approximately 50%
same,decrease in Cmax,[4]; famciclovir 2 hours after a meal vs 2 hours before a meal,18%
same,blood/plasma ratio,[5],approximately 1
same,bound to plasma proteins,[5]; concentration range 0.1 to 20 mcg/mL,< 20%
same,half-life,[6]; repeated doses,2.7 ± 1.0 h
same,half-life,[6]; single dose,2.8 ± 1.0 h
same,AUC of penciclovir greater in patients with herpes zoster as compared to healthy volunteers,"[6]; human, in vivo",approximately 35%
same,AUC (mean±SD),[6]; [10],12100 ± 1700 ng·h/mL
same,Cmax,[6]; [10],4000 ± 700 ng/mL
same,tmax,[6]; [10],0.7 ± 0.2 h
CC(C)[C@H](N)C(=O)OCCOCn1cnc2c(=O)[nH]c(N)nc21 [Valacyclovir],Half-life elimination,"[7]; normal renal function, adults",~0.5 h
same,Bioavailability,[7]; once converted to acyclovir,~55%
same,label eliminated in the feces (nonabsorbed drug),[7]; [11],46%
same,radiolabel eliminated in the urine,[7]; [11],47%
same,Absorption,[7]; valacyclovir,Rapid
same,clinically apparent liver injury,[3],"rare instances mild, clinically apparent liver injury"
Nc1nc2c(ncn2COCCO)c(=O)[nH]1 [Acyclovir],"Excretion: urine, primarily as acyclovir",[7]; in vivo,89%
